Assay [1] has as its system R245H/E447K SGSH. It counts as cell-based, human. The note with it: verapamil, 5-day treatment.
The test system of assay [2] is P356R α-mannosidase. Put plainly: Lysed cell α-mannosidase activity in α-mannosidosis fibroblasts. The assay is classed as cell-based, human. From the text:
Lysosomal α-mannosidase is a broad specificity exoglycosidase involved in the ordered degradation of glycoproteins. Michalski et al, Biochim Biophys Acta-Mol Basis Dis 1455: 69-84, 1999. The P356R mutation in the α-mannosidase enzyme appears to compromise folding and trafficking, leading to very low lysosomal α-mannosidase activity and severe α-mannosidosis. […] The activity of cells harboring P356R α-mannosidase is approximately 18% of that of WT α-mannosidase, under the assay conditions employed. […] . FIG. 21A). […] .

Take `COc1ccc(CCN(C)CCCC(C#N)(c2ccc(OC)c(OC)c2)C(C)C)cc1OC` (stereo not drawn) [verapamil]: the “effect on R245H/E447K sulfamidase activity” value in assay [1] is reported as “did not change the sulfamidase activity significantly”. For the same compound, in assay [2] (brief exposure (1 day)), the “effect on α-mannosidase activity” value is reported as “did not increase α-mannosidase activity significantly”. Besides, the “P356R α-mannosidase activity as % of WT α-mannosidase” value in assay [2] (verapamil 50 μM, 4 days) was “≈ 56%”.

The values are drawn from US20090203605A1, “Methods For Treating A Condition Characterized By Dysfunction In Protein Homeostasis” (THE SCRIPPS RESEARCH INSTITUTE, priority 2008, published 2009).
